In patent publication US20060167106A1, “Compounds acting at the centrosome” (priority 2004, published 2006):
“Also recorded” adds a separate entry of the source.

Legend:
Hsp70 = Hsp70 Western blotting in MDA-435 cells; assay type: cell-based; settings: 0.5 μM; for percentage change in Hsp70 expression relative to DMSO control: normalized to background and GAPDH
Description: Calculations of the percentage changes were made by using the automated band analysis tools of the Kodak 1D (v.3.6.3) program. Band intensities were normalized to background and GAPDH.
MDA-435 breast cancer cells were grown in 100 mm plastic-tissue culture dishes and treated for 6 and 24 hours with 0.5 μM Taxol, Compound 1, Taxol+Compound 1, MG132, ALLN, or DMSO. After treatment, cells were washed in PBS and cell lysates were prepared by adding 100 μL of lysis buffer, which contained 20 mM Tris-HCl (pH 7.5), 150 mM NaCl, 1 mM Na2EDTA, 1 mM EGTA, 1% Triton, 2.5 mM sodium pyrophosphate, 1 mM β-glycerophosphate, 1 mM Na3VO4 and 1 μg/ml leupeptin (Cell Signaling Technology, Beverly, Mass.) supplemented with 1 mM PMSF (Sigma, St. Louis, Mo.) immediately before use, on ice for 1 hour. After scraping, the lysates were cleared by centrifugation at 13,000 RPM for 10 minutes at 4° C. Protein content was determined using a Bradford assay and bovine serum albumin as a standard (Bio-Rad Laboratories, Hercules, Calif.). Samples were solubilized by boiling in SDS sample buffer and subjected to SDS-PAGE. The proteins were subsequently transferred to a PVDF membrane (Bio-Rad, Hercules, Calif.). After blocking with 5% nonfat milk in TBS for 1 hour, the blots were incubated with a mouse monoclonal anti-Hsp70 antibody, which is specific for the inducible form of Hsp70 (Clone C92F3A-5, 1:1000 dilution, Stressgen Biotechnologies Corp., Victoria, B.C., Canada) or a rabbit polyclonal anti-GAPDH antibody (1:2000 dilution, Abcam, Cambridge, Mass.) for 2 hours at room temperature. The horseradish-peroxidase-conjugated secondary antibodies, anti-mouse horse radish peroxidase, (1:2000, Bio-Rad, Hercules, Calif.) and goat anti-rabbit polyclonal horse radish peroxidase (1:2000, Abcam, Cambridge, Mass.)) were diluted in blocking buffer and incubated with the blot for 1 hour at room temperature. The secondary antibodies were detected by enhanced chemiluminescence (ECL, Amersham Biosciences, Piscataway, N.J.) and imaged using a Kodak 440 Image Station.

CV-1 cells [1] = test: Actin (phalloidin) fluorescence in CV-1 cells; assay type: cell-based, monkey; settings: 0.5 μM, 6 hours
Description: CV-1 cells were obtained from ATCC and grown in chamber slides (Labtek, Campbell, Calif.) for 24 hours in 90% Eagle's MEM with 10% BCS before treatment. […] Cells were then washed in PBS and fixed in 3.7% formaldehyde solution in PBS for 10 minutes at room temperature. Cells were washed again twice in PBS for 5 minutes before incubation with AlexaFluoR488 conjugated phalloidin (1:40 dilution; Molecular Probes, Eugene, Oreg.) and 1% bovine serum albumin (BSA) in PBS at 37° C. for 30 minutes.

[2] = test system: CRL-2261 (non-Hodgkin's lymphoma); test: Viability and cell growth of CRL-2261 cells; assay type: cell-based; settings: for Total cells (×10^6): CRL-2261, 36 hour treatment; for Total cells (×10^7): CRL-2261, 48 hour treatment
Description: The viability and cell growth of two lymphoma cell lines, CRL-2261 (non-Hodgkin's lymphoma) and U937 (histiocytic lymphoma), were assayed following treatment with Compound 1 for 36-48 hours. Viability of the cells was determined using a kit from Molecular Probes (Eugene, Oreg.) that labels live cells green (calcein AM) and dead cells red (ethidium homodimer) according to manufacturer's instructions. Fluorescence of calcein and ethidium homodimer in cells was imaged using standard filters for FITC and Texas Red, respectively, with the Nikon TE300 microscope/digital imaging system.

CV-1 cells [3] = test: Cell morphology, time-lapse imaging of CV-1 cells; assay type: cell-based, monkey; settings: 500 nM
Description: CV-1 cells and CHO cells were previously cultured in 2-well chambered cover-slips for 48 hours and incubated in 15 mM HEPES buffer-containing Ham's F-12/DMEM medium with different compounds. The cells were imaged using phase contrast settings with the Nikon TE300 microscope/digital imaging system. The cells were imaged ‘simultaneously’ under control of MetaVue software by capturing frames for cells from different conditions at the same time period using a motorized automated XYZ stage.
[…] […] A very low concentration of Taxol (10 nM) was used.

MCF-7 cells = test: α-tubulin-YFP localization in MCF-7 cells; assay type: cell-based; settings: 40 hours after treatment with 500 nM for 25 hours
Excerpt: MDA-435, MCF-7, CV-1, HT-29 and MCF-10A cell lines were maintained with 10% FBS-containing DMEM media. […] Living cells were examined using a fluorescent microscope for α-tubulin-YFP expression. Cells in single colonies that had microtubules labeled with tubulin-YFP were lifted and expanded using G418-containing media.

[4] = test system: MDA-435 breast cancer cells; test: Multi-ubiquitin Western blotting in MDA-435 cells; assay type: cell-based; settings: for increase of ubiquitinated proteins of the cell lysates: 500 nM
Description: Louis, Mo.) immediately before use, on ice for 1 hour. After scraping, the lysates were cleared by centrifugation at 13,000 RPM for 10 minutes at 4° C. Protein content was determined using a Bradford assay and bovine serum albumin as a standard (Bio-Rad Laboratories, Hercules, Calif.). Samples were solubilized by boiling in SDS sample buffer and subjected to SDS-PAGE. The proteins were subsequently transferred to a PVDF membrane (Bio-Rad, Hercules, Calif.). […] The alkaline phosphatase-conjugated secondary antibodies (Invitrogen, Carlsbad, Calif.) were diluted in blocking buffer and incubated with the blot for 1 hour at room temperature. The secondary antibodies were detected by the Western Breeze Chemiluminescent Kit (Invitrogen, Carlsbad, Calif.) and imaged using a Kodak 440 Image Station. Proteins targeted for degradation by the ubiquitin-dependent proteolytic pathway are tagged with multi-ubiquitin molecules. […] In this assay, accumulation of multi-ubiquitinated proteins in the cells is indicative of the impairment of proteasome activity.

CN(NC(=O)CC(=O)NN(C)C(=S)c1ccccc1)C(=S)c1ccccc1 [Compound 1]
induction of Hsp70 expression (Hsp70; 6 and 24 hours): strongly induced Hsp70 expression
percentage change in Hsp70 expression relative to DMSO control (Hsp70; 6 hours of treatment): 980%
percentage change in Hsp70 expression relative to DMSO control (Hsp70; 24 hours of treatment): 2121%
organization of the actin network (CV-1 cells [1]): dramatic alterations in the cells' actin cytoskeletal networks; also recorded: induced the disappearance of cytosolic actin bundles
cell death / growth inhibition of CRL-2261 cells ([2]; 36-48 hours): significant cell death of CRL-2261 cells; also recorded: more significantly inhibited than growth of U937 cells
Total cells (×10^6) ([2]; 500 nM): 0.69 ×10^6
Total cells (×10^6) ([2]; 5000 nM): 0.75 ×10^6
Total cells (×10^7) ([2]; 0.5 nM): 1.32 ×10^7
Total cells (×10^7) ([2]; 5 nM): 1.11 ×10^7
Total cells (×10^7) ([2]; 50 nM): 0.26 ×10^7
Total cells (×10^7) ([2]; 500 nM): 0.14 ×10^7
Total cells (×10^7) ([2]; 5000 nM): 0.16 ×10^7
changes in the shape of the cell (CV-1 cells [3]; CV-1 cell, 4 hours): shrinkage of cell body relative to FIG. 19D
changes in the shape of live cells (CV-1 cells [3]; CV-1 cells, 4 hours): shrinkage of cell bodies
beginning of cell shrinkage after treatment (CV-1 cells [3]; non-transfected CV-1 cells): 1.5 h
accumulation of α-tubulin-YFP at centrosome-like structures (MCF-7 cells): accumulation of α-tubulin-YFP at centrosome-like structures
accumulation of ubiquitinated proteins / level of proteasome inhibition compared with Velcade ([4]; 0.5 μM Compound 1 versus Velcade 500 nM (and 5 nM), Western blot): significantly less accumulation of ubiquitinated proteins in cultured cells than Velcade; also recorded: below that of the positive control
increase of ubiquitinated proteins of the cell lysates ([4]; 6 hours of treatment in cell culture): 210.03
increase of ubiquitinated proteins of the cell lysates ([4]; 24 hours of treatment in cell culture): 243.11
accumulation of multi-ubiquitinated proteins ([4]; MDA-435 cells, 0.5 μM, 6 and 24 hours): induced the accumulation of multi-ubiquitinated proteins
